Assay results from PubChem BioAssay AID248 (DTP/NCI, 2004).
“And” between values parts separate entries of the source, which are not always exact repeats. Equal values may be shown once. Toxic doses and inconclusive results are not listed.

Test system: L1210 leukemia ip in BDF1 mice, survival T/C
Assay: NCI In Vivo Anticancer Drug Screen. Data for tumor model L1210 Leukemia (intraperitoneal) in B6D2F1 (BDF1) mice
Settings: endpoint: mean survival time, higher = longer survival
Outline: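 Mice bearing the transplanted tumor received compound or vehicle. Survival of the treated group was divided by that of the vehicle-treated control group to give the ratio.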

[1] = dose: 100.0 mg/kg/injection, schedule: Q04DX003 (ip), vehicle: saline with Tween-80
[2] = dose: 100.0 mg/kg/injection, schedule: Q01DX001 (ip), vehicle: saline
[3] = dose: 200.0 mg/kg/injection, schedule: Q01DX001 (ip), vehicle: saline
[4] = dose: 400.0 mg/kg/injection, schedule: Q01DX001 (ip), vehicle: saline
[5] = dose: 100.0 mg/kg/injection, schedule: Q04DX003 (ip), vehicle: saline
[6] = dose: 200.0 mg/kg/injection, schedule: Q04DX003 (ip), vehicle: saline
[7] = dose: 100.0 mg/kg/injection, schedule: Q01DX009 (ip), vehicle: saline with Tween-80
[8] = dose: 200.0 mg/kg/injection, schedule: Q04DX003 (ip), vehicle: saline with Tween-80
[9] = dose: 100.0 mg/kg/injection, schedule: Q04DX003 (ip), vehicle: Klucel (hydroxypropylcellulose) (HPC)
[10] = dose: 200.0 mg/kg/injection, schedule: Q04DX003 (ip), vehicle: Klucel (hydroxypropylcellulose) (HPC)
[11] = dose: 400.0 mg/kg/injection, schedule: Q04DX003 (ip), vehicle: Klucel (hydroxypropylcellulose) (HPC)

## BrC1c2ccccc2-c2nc3ccccc3cc21 (centres undefined)
dose: 37.5 mg/kg/injection, schedule: Q01DX001 (ip), vehicle: Klucel (hydroxypropylcellulose) (HPC)
  T/C: 103 % of control
dose: 75.0 mg/kg/injection, schedule: Q01DX001 (ip), vehicle: Klucel (hydroxypropylcellulose) (HPC)
  T/C: 97 % of control
dose: 150.0 mg/kg/injection, schedule: Q01DX001 (ip), vehicle: Klucel (hydroxypropylcellulose) (HPC)
  T/C: 101 % of control

## Cn1c(=O)c2[n-]cnc2n(C)c1=O.Cn1c(=O)c2[n-]cnc2n(C)c1=O.[Pt+2]
dose: 25.0 mg/kg/injection, schedule: Q04DX003 (ip), vehicle: saline with Tween-80
  T/C: 102 % of control
dose: 50.0 mg/kg/injection, schedule: Q04DX003 (ip), vehicle: saline with Tween-80
  T/C: 98 % of control
[1]
  T/C: 98 % of control

## c1ccc2cc(NCNc3ccc4ccccc4c3)ccc2c1
[2]
  T/C: 100 % of control
[3]
  T/C: 95 % of control
[4]
  T/C: 100 % of control

## CC(=O)C1CC2C=CCC(C2)C1 (centres undefined)
dose: 100.0 mg/kg/injection, schedule: Q01DX001 (ip), vehicle: saline with Tween-80
  T/C: 95 % of control
dose: 200.0 mg/kg/injection, schedule: Q01DX001 (ip), vehicle: saline with Tween-80
  T/C: 90 % of control
dose: 400.0 mg/kg/injection, schedule: Q01DX001 (ip), vehicle: saline with Tween-80
  T/C: 96 % of control

## C=C(Br)CNC(=O)OCC
dose: 50.0 mg/kg/injection, schedule: Q04DX003 (ip), vehicle: saline
  T/C: 96 % of control
[5]
  T/C: 115 % of control
[6]
  T/C: 107 % of control

## CN(C)CCNc1ccc([N+](=O)[O-])c2sc3ccccc3c(=O)c12
dose: 5.3 mg/kg/injection, schedule: Q01DX Z (ip), vehicle: methylcellulose (MC)
  T/C: 94 % of control and 98 % of control
dose: 8.0 mg/kg/injection, schedule: Q01DX Z (ip), vehicle: carboxymethylcellulose (CMC)
  T/C: 102 % of control
dose: 8.0 mg/kg/injection, schedule: Q01DX Z (ip), vehicle: methylcellulose (MC)
  T/C: 98 % of control and 106 % of control
dose: 12.0 mg/kg/injection, schedule: Q01DX Z (ip), vehicle: carboxymethylcellulose (CMC)
  T/C: 118 % of control
dose: 26.0 mg/kg/injection, schedule: Q01DX Z (ip), vehicle: carboxymethylcellulose (CMC)
  T/C: 152 % of control
dose: 27.0 mg/kg/injection, schedule: Q01DX Z (ip), vehicle: carboxymethylcellulose (CMC)
  T/C: 156 % of control
dose: 27.0 mg/kg/injection, schedule: Q01DX Z (ip), vehicle: methylcellulose (MC)
  T/C: 98 % of control and 156 % of control and 216 % of control
dose: 40.0 mg/kg/injection, schedule: Q01DX Z (ip), vehicle: carboxymethylcellulose (CMC)
  T/C: 172 % of control
dose: 40.0 mg/kg/injection, schedule: Q01DX Z (ip), vehicle: methylcellulose (MC)
  T/C: 111 % of control

## O=C1NCC(Nc2ccc(Br)cc2Cl)C(=O)N1 (centres undefined)
dose: 100.0 mg/kg/injection, schedule: Q01DX Z (ip), vehicle: methylcellulose (MC)
  T/C: 96 % of control
dose: 200.0 mg/kg/injection, schedule: Q01DX Z (ip), vehicle: methylcellulose (MC)
  T/C: 90 % of control

## CCOC(=O)COc1c(C(C)(C)C)cc([N+](=O)[O-])c(C)c1[N+](=O)[O-]
dose: 100.0 mg/kg/injection, schedule: Q04DX002 (ip), vehicle: Klucel (hydroxypropylcellulose) (HPC)
  T/C: 100 % of control
dose: 200.0 mg/kg/injection, schedule: Q04DX002 (ip), vehicle: Klucel (hydroxypropylcellulose) (HPC)
  T/C: 91 % of control
dose: 400.0 mg/kg/injection, schedule: Q04DX002 (ip), vehicle: Klucel (hydroxypropylcellulose) (HPC)
  T/C: 106 % of control

## COc1ccc2ccccc2n1
dose: 100.0 mg/kg/injection, schedule: Q01DX001 (ip), vehicle: Klucel (hydroxypropylcellulose) (HPC)
  T/C: 94 % of control
[7]
  T/C: 103 % of control
[1]
  T/C: 103 % of control
dose: 200.0 mg/kg/injection, schedule: Q01DX001 (ip), vehicle: Klucel (hydroxypropylcellulose) (HPC)
  T/C: 102 % of control
dose: 200.0 mg/kg/injection, schedule: Q01DX009 (ip), vehicle: saline with Tween-80
  T/C: 90 % of control
[8]
  T/C: 98 % of control
dose: 400.0 mg/kg/injection, schedule: Q01DX001 (ip), vehicle: Klucel (hydroxypropylcellulose) (HPC)
  T/C: 105 % of control

## CC(=O)NC(C)CC(C)C (centres undefined)
[5]
  T/C: 113 % of control
[6]
  T/C: 103 % of control

## CCOC(=O)c1cnc(SC)nc1Nc1c(Br)cc(Br)cc1Br
dose: 12.5 mg/kg/injection, schedule: Q01DX009 (ip), vehicle: Klucel (hydroxypropylcellulose) (HPC)
  T/C: 102 % of control
dose: 12.5 mg/kg/injection, schedule: Q04DX003 (ip), vehicle: Klucel (hydroxypropylcellulose) (HPC)
  T/C: 97 % of control
dose: 25.0 mg/kg/injection, schedule: Q01DX009 (ip), vehicle: Klucel (hydroxypropylcellulose) (HPC)
  T/C: 102 % of control
dose: 25.0 mg/kg/injection, schedule: Q04DX003 (ip), vehicle: Klucel (hydroxypropylcellulose) (HPC)
  T/C: 94 % of control
dose: 50.0 mg/kg/injection, schedule: Q01DX009 (ip), vehicle: Klucel (hydroxypropylcellulose) (HPC)
  T/C: 105 % of control
dose: 50.0 mg/kg/injection, schedule: Q04DX003 (ip), vehicle: Klucel (hydroxypropylcellulose) (HPC)
  T/C: 103 % of control

## O=c1[nH]nc(-c2ccc(Cl)cc2Cl)s1
[9]
  T/C: 95 % of control
[10]
  T/C: 101 % of control
[11]
  T/C: 112 % of control

## CN(N=O)C(=O)NCCCCCNC(=O)N(C)N=O
dose: 6.25 mg/kg/injection, schedule: Q01DX Z (ip), vehicle: carboxymethylcellulose (CMC)
  T/C: 102 % of control
dose: 12.5 mg/kg/injection, schedule: Q01DX Z (ip), vehicle: carboxymethylcellulose (CMC)
  T/C: 100 % of control
dose: 25.0 mg/kg/injection, schedule: Q01DX Z (ip), vehicle: carboxymethylcellulose (CMC)
  T/C: 106 % of control
dose: 50.0 mg/kg/injection, schedule: Q01DX Z (ip), vehicle: carboxymethylcellulose (CMC)
  T/C: 108 % of control
dose: 150.0 mg/kg/injection, schedule: Q01DX Z (ip), vehicle: carboxymethylcellulose (CMC)
  T/C: 191 % of control
dose: 175.0 mg/kg/injection, schedule: Q01DX Z (ip), vehicle: carboxymethylcellulose (CMC)
  T/C: 166 % of control
dose: 200.0 mg/kg/injection, schedule: Q01DX Z (ip), vehicle: carboxymethylcellulose (CMC)
  T/C: 158 % of control
dose: 210.0 mg/kg/injection, schedule: Q01DX001 (ip), vehicle: carboxymethylcellulose (CMC)
  T/C: 117 % of control

## CCCCCCCCCCCCCCCCS(=O)(=O)c1ccc(S(=O)(=O)N/N=c2/sc3ccc(S(=O)(=O)O)cc3n2C)cc1C(=O)O
dose: 50.0 mg/kg/injection, schedule: Q01DX009 (ip), vehicle: saline with Tween-80
  T/C: 97 % of control
[7]
  T/C: 94 % of control

## OC1c2cc(Cl)cc(Cl)c2-c2c(Cl)cc(Cl)cc21
[5]
  T/C: 96 % of control
[6]
  T/C: 98 % of control
dose: 400.0 mg/kg/injection, schedule: Q04DX003 (ip), vehicle: saline
  T/C: 106 % of control

## CCCCCCCCCC(=O)N(C)OC
[1]
  T/C: 87 % of control
[8]
  T/C: 88 % of control
dose: 400.0 mg/kg/injection, schedule: Q04DX003 (ip), vehicle: saline with Tween-80
  T/C: 92 % of control

## O=C1Nc2ccccc2C1=Nc1ccccc1-c1ccccc1
[2]
  T/C: 91 % of control
[3]
  T/C: 92 % of control
[4]
  T/C: 96 % of control

## CC(=O)Nc1c(NN=C(C)C)[nH]c(=O)[nH]c1=O
dose: 50.0 mg/kg/injection, schedule: Q01DX001 (ip), vehicle: saline
  T/C: 98 % of control
[2]
  T/C: 96 % of control
[3]
  T/C: 102 % of control
[4]
  T/C: 98 % of control

## CCCC(C(O)c1ccc(OC)cc1)C(O)(C(F)(F)F)C(F)(F)F (centres undefined)
dose: 100.0 mg/kg/injection, schedule: Q04DX003 (ip), vehicle: other
  T/C: 97 % of control
dose: 200.0 mg/kg/injection, schedule: Q04DX003 (ip), vehicle: other
  T/C: 92 % of control
dose: 400.0 mg/kg/injection, schedule: Q04DX003 (ip), vehicle: other
  T/C: 92 % of control

## O=C(NCCCl)Nc1c2ccccc2nc2ccccc12
dose: 100.0 mg/kg/injection, schedule: Q01DX009 (ip), vehicle: Klucel (hydroxypropylcellulose) (HPC)
  T/C: 97 % of control
[9]
  T/C: 103 % of control
dose: 200.0 mg/kg/injection, schedule: Q01DX009 (ip), vehicle: Klucel (hydroxypropylcellulose) (HPC)
  T/C: 89 % of control
[10]
  T/C: 103 % of control
[11]
  T/C: 104 % of control

## Cc1ccc(COc2ccc(Cl)cc2Cn2ccnc2)cc1
dose: 100.0 mg/kg/injection, schedule: Q01DX009 (ip), vehicle: saline
  T/C: 102 % of control

## Nc1c(Cl)ccc2c(Cl)ccnc12
[2]
  T/C: 111 % of control
dose: 150.0 mg/kg/injection, schedule: Q04DX003 (ip), vehicle: other
  T/C: 89 % of control
[3]
  T/C: 98 % of control
dose: 300.0 mg/kg/injection, schedule: Q04DX003 (ip), vehicle: other
  T/C: 97 % of control
[4]
  T/C: 104 % of control
